In article PMC6814236, “Monitoring and characterizing soluble and membrane-bound ectonucleotidases CD73 and CD39” (PLoS ONE, 2019):
“Also recorded” adds a separate entry of the source.

Experiments:
[1] = system: T1, cN-II (Human cytosolic 5'-Nucleotidase); experiment: Enzyme activity of purified cytosolic cN-II (AMP-Glo assay); assay type: biochemical; conditions: cN-II 0.6 mU/Rx, 10μM AMP, 37°C for 30 min
T1 construct: purchased NovoCIB SAS
Procedure: • 2 Determination of enzyme activity of purified cytosolic cN-II. Activity of purified cN-II (Human cytosolic 5'-Nucleotidase) was determined using 25μl reaction buffer (50mM HEPES, pH 7.0, 100mM KCl, 20mM MgCl2, 5mM DTT, 2.5mM dATP, and 0.1mg/ml BSA) containing enzyme and AMP substrate at 10μM (96-well format). Reaction continued at 37°C for 60 minutes or for a certain time period and terminated by the addition of equal volume (25μl) of AMP-Glo™ Reagent I. Reactions were mixed well and incubated for additional 30 min at 23°C. This was followed by the addition of 50 μl of AMP Detection Solution (10μl of AMP-Glo™ Reagent II per ml of Kinase-Glo® One Solution) and incubated for additional 60 min at 23°C before reading luminescence. • 3 Determination of enzyme activity of purified CD39. Activity of CD39 was determined using reaction buffer that contains 25mM Tris, pH 7.5, 5mM CaCl2, and 0.1mg/ml BSA), with 1μM to 5μM ATP or ADP as substrate, respectively. When ATP is used as a substrate, an equal volume of Kinase-Glo® One Solution was added to CD39 reactions and incubated for 15 min before reading luminescence using a luminometer. […] Reactions were mixed well and incubated for 60min before reading luminescence using luminometer. […]

[2] = target: T2, Recombinant Human 5'-Nucleotidase/CD73 (Homo sapiens, UniProt P21589); design: method as in PMID 18302942, PMID 24144488; conditions: reported by others; ref [25], [26]; cited from earlier work
T2 construct: purchased R&D Systems
T2 sequence (P21589 27-574): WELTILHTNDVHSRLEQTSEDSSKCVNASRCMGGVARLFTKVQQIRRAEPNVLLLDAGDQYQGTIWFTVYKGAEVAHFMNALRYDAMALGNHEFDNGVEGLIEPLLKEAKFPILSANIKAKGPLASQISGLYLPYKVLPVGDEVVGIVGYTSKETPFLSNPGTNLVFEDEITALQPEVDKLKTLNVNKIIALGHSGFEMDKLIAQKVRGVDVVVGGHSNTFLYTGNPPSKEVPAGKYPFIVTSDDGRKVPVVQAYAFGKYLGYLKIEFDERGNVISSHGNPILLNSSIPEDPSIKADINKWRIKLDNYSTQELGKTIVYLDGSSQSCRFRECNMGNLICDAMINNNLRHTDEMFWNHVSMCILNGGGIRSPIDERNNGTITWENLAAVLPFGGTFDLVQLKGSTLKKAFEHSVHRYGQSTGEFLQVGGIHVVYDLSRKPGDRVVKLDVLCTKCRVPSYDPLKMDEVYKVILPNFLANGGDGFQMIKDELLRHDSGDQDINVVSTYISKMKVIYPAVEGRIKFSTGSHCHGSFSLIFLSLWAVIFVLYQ

For `Nc1ncnc2c1ncn2[C@@H]1O[C@H](COP(=O)(O)CP(=O)(O)O)[C@@H](O)[C@H]1O` [AMP-CP, Adenosine 5'-(α, β-methylene) diphosphate], the “inhibition of cN-II” value [1] is listed as “minimal or no inhibition; also recorded: no inhibition” and the IC50 [2] is listed as 0.236 µM.
